Row | melting point [°C] | SMILES
1 | 55 to 57 | CCOC(=O)c1cc2oc3c(n2n1)CCCC3
2 | 182 to 184 | COc1cc(C(C)C)c2c(c1)S(=O)(=O)N(COc1cc(C)oc(=O)c1Cl)C2=O
3 | 280 to 284 | CCOC(=O)c1c[nH]c2nc(SCC)c(F)cc2c1=O
4 | 90 to 105 | COc1ccc(C(C)COc2nc(N)c3ncn(C4OC(CO)C(O)C4O)c3n2)cc1 (configuration not stated)
5 | 167 to 169 | COc1cc2c(c3c1OC(C)(C)C3)C(c1cccc(-c3ccc4ccccc4n3)c1)=NC(C)(C)C2
6 | 195 to 196 | CS(=O)(=O)c1ccc(-c2oc3ccccc3c(=O)c2-c2cccc(Cl)c2)cc1
7 | 229 to 230 | CCN(CC)c1ccc2nc3c4ccccc4c(=Nc4cc(C)nc5ccccc45)cc-3oc2c1
8 | 126 to 128 | CCS(=O)(=O)N1CCSc2cccc(Cl)c2C1
9 | 116 to 126 | CN(C)S(=O)(=O)Oc1cccc2c1S(=O)(=O)N=C2C1=C(O)C(C(C)(C)C)N(Cc2ccc(F)cc2)C1=O (configuration not stated)
10 | 49.6 | CCOC(=O)C(C)Oc1ccc(C(C)=O)cc1 (configuration not stated)
11 | 89 to 100 | Clc1cc(N2CCNCC2)nc(N2CCCC2)n1
12 | 71 to 73 | O=C(c1ccccc1)c1ccc(OCCCCNS(=O)(=O)c2ccc(Br)cc2)cc1
13 | 228 to 231 | COCCc1nc2c(N)nc3cc(Br)ccc3c2n1CCCN1CCCC1=O
14 | 171 to 174 | Clc1ccc(-c2cc(C3CCN(Cc4ccc(Cl)c(Cl)c4)CC3)n[nH]2)cc1
15 | 190 to 193 | Nc1nc(NCCc2cccc(O)c2)nc2nc(-c3ccco3)nn12
16 | 58 to 60 | CN(C(=O)Nc1ccc2c(ccn2C)c1)c1cccnc1
17 | 61 to 63 | Cc1nc(-c2cccc(C(F)(F)F)c2)ccc1C=O
18 | 113 to 115 | COC1=CC(=O)CN(Cc2ccccc2)C1
19 | 151 to 153 | COc1nc(C2=NC(=O)C(C)(C(C)C)N2)c(C(=O)O)cc1C (configuration not stated)
20 | 247 | O=C(Nc1cccc2c1C(=O)c1c-2n[nH]c1-c1ccc(N2CCC(N3CCCC3)CC2)cc1)NN1CCOCC1
21 | 228 | O=C1NS(=O)(=O)c2cccc(O)c21
22 | 158 to 159 | CCOC(=O)c1cnc2c(c(C)nc3cc(C)nn32)c1N1CCN(C)CC1
23 | 103 to 107 | CCOc1ccc(-c2nc(OC)ccc2N2CCC(c3ccc(OC)cc3)N(C)CC2)cc1 (configuration not stated)
24 | 150 to 151 | COc1ccc(Sc2ccc3c(c2)CCC2N(C)C(=O)CCC32C)cc1 (single isomer, unassigned; (+))

Row | melting point [°C] | SMILES
25 | 221 to 223 | Cc1nc2c(c3c1[nH]c1ccc(F)cc13)C(=O)CC(C(C)C)C2 (configuration not stated)
26 | 177 to 179 | O=C1c2ccccc2C(=O)N1OCc1ccc2c(c1F)OC(c1ccccc1)(c1ccccc1)O2
27 | 100 to 102 | COC(=O)c1ccc(OCCCO/N=C/c2cn(Cc3ccccc3)c3ccccc23)cc1O
28 | 224 | CCOC(=O)C1=C(C)Nc2nc(N)nc(N)c2C1c1cccnc1 (configuration not stated)
29 | 58 | c1ccc(OCCSCc2nnc(-c3ccc(OCCCCN4CCSCC4)cc3)o2)cc1
30 | 180 to 183 | COc1cccc2c(=O)c(O)coc12
31 | 61.5 to 62.5 | Cc1ccc(C(=S)CC2CCCN(C)C2)cc1 (configuration not stated)
32 | 228 to 231 | O=C1CCc2cc(Cl)c(S(=O)(=O)NCc3ccccc3)cc21
33 | 171 to 173 | CCOC(=O)c1c(C(=O)O)c2c(OCc3ccccc3)ccc3c(CC)c(-c4ccc(OCc5ccccc5)cc4)c1n32
34 | 87 to 91 | O=C(O)CCC/C=C\[C@@H]1C[C@@H](NS(=O)(=O)c2ccc(Cl)cc2)CN1Cc1ccccc1
35 | 145 to 148 | CCOC(=O)C(Cl)=NNc1ccc(Cl)cc1
36 | 164 to 165 | CC(C)(C)c1ccc(C=NOCCOc2ccc(C(=O)O)c(OCc3ccc(C(F)(F)F)cc3)c2)cc1
37 | 156 to 157 | COc1ccc(-c2ccc(Cl)nn2)c(O)c1
38 | 79 | CC(=O)SCC(=Cc1ccc(C(F)(F)F)cc1)C(=O)NCCC(=O)OCc1ccccc1
39 | 217 to 218 | O=C1Nc2ccccc2C(=O)N2CC[C@@H]12
40 | 127 to 129 | CCCCCCCC(=O)NNC(=O)N1Cc2ccccc2Oc2ccc(Cl)cc21
41 | 189 to 191 | O=C1N(Cc2ccc(C(F)(F)F)o2)c2cc3c(cc2C12COc1cc4c(cc12)CCO4)OCCO3 (configuration not stated)
42 | 40 | CCCSN(C)C(=O)Nc1ccc(Cl)c(Cl)c1
43 | 204 to 206 | O=[N+]([O-])c1cccc(-c2ccnc3ccnn23)c1
44 | 171 to 173 | N#Cc1ccc(S(=O)(=O)n2ccc3ccccc32)cc1C#N
45 | 106 | CCOC(=O)c1cc(CC)sc1Nc1cc(F)cc(F)c1N
46 | 226 to 227 | O=S1(=O)CCON=C1c1nc2ccccc2s1
47 | 222 to 225 | O=c1[nH]c(CCCN2CCCC2)cc2c(O)cccc12
48 | 180 to 181 | Cc1ccc(NC(=O)C(CS)Cc2ccccc2)c(C)c1C(=O)O (configuration not stated)

Row | melting point [°C] | SMILES
49 | 76 to 78 | CCOC(=O)c1c(C(C)C)c2n(c1-c1ccc(F)cc1)CCCC2
50 | 215 | COc1ccc2cc(C#N)c(=O)oc2c1C
51 | 191 | COC(=O)C1=C(C)NC(C)=C(c2ccccc2)C1c1cccc(Cl)c1 (configuration not stated)
52 | 205 to 208 | CNc1cc(Oc2ccc3c(C(=O)Nc4cccc(C(F)(F)F)c4)cncc3c2)ncn1
53 | 212 to 213 | O=C1Cc2cc(-n3cccc3)ccc2C(=O)N1
54 | 192 to 195 | O=C1c2ccccc2N(Cc2ccc(F)cc2)C2=NCCN12
55 | 83 | CCCCCCCCCCCCCCCCCCNC(=O)OC(=O)CCCCCCCCCCC
56 | 203 to 205 | Cn1c(C=NO)cnc1[N+](=O)[O-]
57 | 81 to 82 | Cc1cc(C)cc(Sc2c(CC#N)nc(C)n2C)c1
58 | 45 to 48 | Cc1ccc2c(c1)CCO2
59 | 167 to 168 | CC(C)(C)OC(=O)C(C#N)=C(NCCCN1CCCCCC1=O)Nc1cc(C(F)(F)F)cc(C(F)(F)F)c1
60 | 107 to 108 | CCC(O)(c1ccc(OCc2cccc(C)n2)cc1)c1cc(C)ccc1C (configuration not stated)
61 | 200 to 201 | CCOCc1nc2c(N)nc3cc(OCc4csc(C)n4)ccc3c2n1CC(C)(C)O
62 | 172 | CCOCCNc1nc(C)c(CCO)c(=O)[nH]1
63 | 218 to 219 | CC(C)n1nc(-c2c(-c3ccccc3)nn3c(N)cccc23)ccc1=O
64 | 174 to 176 | COc1ccc(C(=O)Nc2ccccc2)cc1NC(=S)Nc1ccccc1
65 | 75 to 80 | CCCc1cccc2cc(C(=O)O)oc12
66 | 133 | CC1Cc2c(-c3ccccc3)[nH]c(-c3ccccc3)c2CC1C (configuration not stated)
67 | 217 to 220 | c1csc(-c2nc3ccc(N4CCNCC4)nn3c2-c2ccncc2)c1
68 | 84 to 87 | COC(=O)C(Br)c1nsc2ccc(-n3c(=O)cc(C(F)(F)F)n(C)c3=O)cc12 (configuration not stated)
69 | 75 to 76 | CC(C)C(NC(=O)OC(C)(C)C)C(=O)OCC1OC(n2cc(C=CBr)c(=O)[nH]c2=O)CC1Cl (configuration not stated)
70 | 81 | CCOC(=O)c1ccc(C2=CCCc3ccccc32)cc1
71 | 168 to 170 | CCOC(OCC)c1cc(NC(c2ccccc2)(c2ccccc2)c2ccccc2)c(F)c(C(C)(C)C)n1
72 | 125 to 126 | CCc1cc(C(=O)c2ccccc2Cl)c(NC=C[N+](=O)[O-])s1

Row | melting point [°C] | SMILES
73 | 236 | CCCn1c(=O)c2[nH]c(/C=C/c3cccc(OC)c3OC)nc2n(CCC)c1=O
74 | 214 to 216 | Cc1ccc(S(=O)(=O)C=CC#N)cc1NS(=O)(=O)c1ccc2ccccc2c1
75 | 268 to 290 | Oc1c(C2(c3ccc4ccccc4c3O)c3ccccc3-c3ccccc32)ccc2ccccc12
76 | 178 | Cc1noc(-c2c3cccc(-c4ccc(Cl)cc4Cl)c3nn2C)n1
77 | 123 to 124 | COc1cc(OC)cc(C(=O)N[C@H]2CCN(C)C[C@H]2c2ccccc2)c1 (relative stereo)
78 | 188 | O=C1NC(=O)C(c2ccccc2)=C1Nc1cccc(Cl)c1
79 | 50 to 51 | CCOC(=O)CCC(=O)OCC(=O)c1ccc(Cl)cc1
80 | 310 to 314 | Nc1cc(F)cc(F)c1NC(=S)Nc1c(Cl)cccc1Cl
81 | 94 to 98 | O=C(NCCCc1ccncc1)N1CCOCC1
82 | 167 to 168 | Cc1cn(S(C)(=O)=O)c2c1C(=O)CC(c1ccccc1Cl)C2 (configuration not stated)
83 | 233 to 235 | COC(=O)c1ccc2nc(-n3ccnc3)nc(NCCOCCO)c2c1
84 | 115 to 117 | CCC=Cc1c(C(C)C)nc(C(C)C)c(CO)c1-c1ccc(F)cc1
85 | 120 to 130 | COc1ccc(/C=C/C(=O)CC(=O)/C=C/c2ccc(O)cc2Cl)cc1O
86 | 195 to 196 | N#Cc1ccc2c(c1)-c1cc(C#N)ccc1OCCO2
87 | 70 to 72 | c1ccc(C2NCCOC2c2ccccc2)cc1 (configuration not stated)
88 | 112 | CCCCNC(=O)Oc1cccc(NC(=O)CC(C)=O)c1
89 | 134 to 135 | COC(=O)c1ccc(/C=C\c2ccc(C(=O)OC)cc2Cl)cc1
90 | 233 to 237 | O=C(O)COc1ccc2c(-c3ccc(F)cc3)noc2c1Cl
91 | 73.5 to 74.5 | CCOC(=O)/C=C/c1ccc(OCOC)cc1Oc1ncc(C(F)(F)F)cc1Cl
92 | 185 to 186 | O=c1ncc(Br)cn1CCCl
93 | 152 to 155 | OCCOc1ccc(C=Cc2ncn(CC(O)(Cn3cncn3)c3ccc(F)cc3F)n2)cc1 (configuration not stated)
94 | 242 to 244 | O=C(O)c1cccc(-n2c(-c3ccc(Br)cc3)cc3c2CCCC3)c1

Row | SMILES | melting point [°C]
95 | COc1ccc(C(=O)Nc2ccccc2)c(CC2CCCCN2)c1 (configuration not stated) | 108 to 109
96 | [N-]=[N+]=Nc1cc(=O)oc2ccccc12 | 159 to 160
97 | COC(=O)CCCOc1ccc(CC(C)NCC(O)c2cc3ccccc3o2)cc1 (configuration not stated) | 63 to 70
98 | CN(C)Cc1nnc2n1-c1ccc(C(F)(F)F)cc1C(c1ccccc1)=[N+]([O-])C2 | 188 to 190
99 | CCCCCCc1ccc(CCc2cc3c(s2)NC(=S)CN=C3c2ccccc2Cl)cc1 | 140 to 145
100 | Cc1ncn(-c2ccc(C#N)c(F)c2)n1 | 133 to 134
101 | O=[N+]([O-])c1c(F)cc(N2CCOCC2)cc1F | 112 to 114
102 | Cc1ccc(OC2CCN(CCc3c[nH]c4ccccc34)CC2)cc1 | 115 to 117

Reference: a melting point compilation (Tetko et al.; mined from patent text by program, amines drawn as free bases though some values may be those of a salt)
